Reference: PubChem BioAssay AID2060335 (Molecular Pharmacology Branch, DTP, NCI, 2025)

Test system: DU-145 multicell spheroids with HUVEC/MSC, viability
Experiment: Anticancer human tumor DU-145 cell line growth inhibition [IpAb];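 note: spheroids exposed to agents for seven days before measurement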;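 for viability, T/C: percent of DMSO vehicle control viability so 100% = untreated level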
Settings: for IC50: curve of first compound; for viability, T/C: stronger effect = lower value; active = viability on the fitted dose curve at most 10% of control; inactive = the rest
Summary of the method: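 Multi-cell spheroids of 60% tumour cells, 25% HUVEC and 15% MSC in ultra-low-attachment U-bottom wells, treated with agents combined with ipatasertib or abemaciclib. Half-log ranges top out near clinical Cmax, or 10 microM when Cmax is unknown.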

[1] = second compound 0.01 µM, first compound 0.0316 µM
[2] = second compound 0.01 µM, first compound 0.1 µM
[3] = second compound 0.0316 µM, first compound 0.0316 µM
[4] = second compound 0.0316 µM, first compound 0.1 µM
[5] = second compound 0.1 µM, first compound 0.0316 µM
[6] = second compound 0.1 µM, first compound 0.1 µM
[7] = second compound 0.316 µM, first compound 0.0316 µM
[8] = second compound 0.316 µM, first compound 0.1 µM
[9] = second compound 1 µM, first compound 0.0316 µM
[10] = second compound 1 µM, first compound 0.1 µM

Cn1ncc(Cl)c1-c1cc(C(=O)NC(CN)Cc2cccc(F)c2)sc1Cl (stereo not given) + CCN1CCN(Cc2ccc(Nc3ncc(F)c(-c4cc(F)c5nc(C)n(C(C)C)c5c4)n3)nc2)CC1
0.0796 µM: IC50 (second compound 0.316 µM)
0.19 µM: IC50 (second compound 1 µM)
0.0803 µM: IC50 (second compound 0.1 µM)
active: viability, T/C (second compound 0.01 µM, first compound 10 µM) 1.16% | viability, T/C (second compound 0.0316 µM, first compound 3.16 µM) 14% | viability, T/C (second compound 0.0316 µM, first compound 10 µM) 0.22% | viability, T/C (second compound 0.1 µM, first compound 3.16 µM) 13.4% | viability, T/C (second compound 0.1 µM, first compound 10 µM) 0.82% | viability, T/C (second compound 0.316 µM, first compound 10 µM) 0.85% | viability, T/C (second compound 1 µM, first compound 10 µM) 0.53%
0.135 µM: IC50 (second compound 0.01 µM)
inactive: viability, T/C [1] 84.7% | viability, T/C [2] 56.3% | viability, T/C (second compound 0.01 µM, first compound 0.316 µM) 30.6% | viability, T/C (second compound 0.01 µM, first compound 1 µM) 22.5% | viability, T/C (second compound 0.01 µM, first compound 3.16 µM) 13.7% | viability, T/C [3] 74.1% | viability, T/C [4] 48.9% | viability, T/C (second compound 0.0316 µM, first compound 0.316 µM) 29.6% | viability, T/C (second compound 0.0316 µM, first compound 1 µM) 19.6% | viability, T/C [5] 64.4% | viability, T/C [6] 47.8% | viability, T/C (second compound 0.1 µM, first compound 0.316 µM) 29.4% | viability, T/C (second compound 0.1 µM, first compound 1 µM) 19% | viability, T/C [7] 60% | viability, T/C [8] 48.5% | viability, T/C (second compound 0.316 µM, first compound 0.316 µM) 32.8% | viability, T/C (second compound 0.316 µM, first compound 1 µM) 23.4% | viability, T/C (second compound 0.316 µM, first compound 3.16 µM) 16.4% | viability, T/C [9] 60.3% | viability, T/C [10] 52% | viability, T/C (second compound 1 µM, first compound 0.316 µM) 50.2% | viability, T/C (second compound 1 µM, first compound 1 µM) 30.9% | viability, T/C (second compound 1 µM, first compound 3.16 µM) 25.8%
0.0967 µM: IC50 (second compound 0.0316 µM)

Cn1ncnc1[C@H]1c2n[nH]c(=O)c3cc(F)cc(c23)N[C@@H]1c1ccc(F)cc1 + CCN1CCN(Cc2ccc(Nc3ncc(F)c(-c4cc(F)c5nc(C)n(C(C)C)c5c4)n3)nc2)CC1
> 0.1 µM: IC50 (second compound 0.01 µM) | IC50 (second compound 0.0316 µM) | IC50 (second compound 0.1 µM) | IC50 (second compound 0.316 µM) | IC50 (second compound 1 µM)
inactive: viability, T/C (second compound 0.01 µM, first compound 0.000316 µM) 99.7% | viability, T/C (second compound 0.01 µM, first compound 0.001 µM) 102% | viability, T/C (second compound 0.01 µM, first compound 0.00316 µM) 96.8% | viability, T/C (second compound 0.01 µM, first compound 0.01 µM) 89% | viability, T/C [1] 88.5% | viability, T/C [2] 81.6% | viability, T/C (second compound 0.0316 µM, first compound 0.000316 µM) 94.2% | viability, T/C (second compound 0.0316 µM, first compound 0.001 µM) 95.7% | viability, T/C (second compound 0.0316 µM, first compound 0.00316 µM) 84.5% | viability, T/C (second compound 0.0316 µM, first compound 0.01 µM) 79.1% | viability, T/C [3] 84.1% | viability, T/C [4] 77.4% | viability, T/C (second compound 0.1 µM, first compound 0.000316 µM) 90% | viability, T/C (second compound 0.1 µM, first compound 0.001 µM) 84.4% | viability, T/C (second compound 0.1 µM, first compound 0.00316 µM) 78.3% | viability, T/C (second compound 0.1 µM, first compound 0.01 µM) 73.4% | viability, T/C [5] 82.1% | viability, T/C [6] 76% | viability, T/C (second compound 0.316 µM, first compound 0.000316 µM) 81.9% | viability, T/C (second compound 0.316 µM, first compound 0.001 µM) 78% | viability, T/C (second compound 0.316 µM, first compound 0.00316 µM) 75.3% | viability, T/C (second compound 0.316 µM, first compound 0.01 µM) 73.3% | viability, T/C [7] 66.7% | viability, T/C [8] 64.7% | viability, T/C (second compound 1 µM, first compound 0.000316 µM) 67.9% | viability, T/C (second compound 1 µM, first compound 0.001 µM) 75.3% | viability, T/C (second compound 1 µM, first compound 0.00316 µM) 63.3% | viability, T/C (second compound 1 µM, first compound 0.01 µM) 65.8% | viability, T/C [9] 63.7% | viability, T/C [10] 61.2%
